The record followed here is US8058009B2, “Target protein and target gene in drug designing and screening method” (Reverse Proteomics Research Institute Co., Ltd., priority 2004, dated 2011).

One assay deals with T1, FLJ31146-derived protein (Homo sapiens, UniProt Q9BSE4).
T1 construct: made in house; host or cells: wheat germ cell-free synthesis system (PROTEIOS, Toyobo)
T1 sequence (Q9BSE4 1-406): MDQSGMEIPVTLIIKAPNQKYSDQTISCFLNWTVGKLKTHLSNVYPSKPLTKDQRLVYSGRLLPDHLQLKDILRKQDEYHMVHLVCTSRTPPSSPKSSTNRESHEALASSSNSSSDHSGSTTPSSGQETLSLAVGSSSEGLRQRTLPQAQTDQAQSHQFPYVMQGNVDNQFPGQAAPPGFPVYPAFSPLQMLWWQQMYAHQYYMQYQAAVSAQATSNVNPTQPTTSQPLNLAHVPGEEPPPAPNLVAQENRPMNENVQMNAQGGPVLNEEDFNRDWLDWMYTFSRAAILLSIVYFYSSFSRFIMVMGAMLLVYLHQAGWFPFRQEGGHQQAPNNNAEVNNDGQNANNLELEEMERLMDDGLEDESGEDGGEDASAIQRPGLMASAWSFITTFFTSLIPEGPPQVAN
Kind of assay: Biacore S51 surface plasmon resonance binding to FLJ31146-derived protein. The protocol: (§1) A desired gene of a human full-length cDNA clone was BP-reacted with the PCR cloning vector Gateway pDONR201 using the Invitrogen Gateway system per the kit protocol to yield an entry vector. […]
(§2) The surface of the CM5 sensor chip for S51 commercially available from Biacore Company was subjected to an NTA treatment with 1 M EDC, 1.33 M NHS and 16 mg/ml AB-NTA (pH 9.2) to prepare an NTA sensor chip for S51. […] A correction for the effect of DMSO contained in the compound solutions and running buffer (solvent correction) was performed on the basis of measured results from separately prepared solutions mimicking the running buffer, and containing 3.8 to 5.1% of DMSO (8 points). The compound characterization assay program for Biacore S51 was performed to measure the interactions between immobilized ligands (proteins) and analytes (compounds; 62.5 μM to 0.244 μM), and the results were analyzed using a dedicated software program. […]

In another assay the target is T2, FLJ14797-derived protein (Homo sapiens, UniProt Q9UGJ1).
T2 construct: made in house; host or cells: wheat germ cell-free synthesis system (PROTEIOS, Toyobo)
Kind of assay: Biacore S51 surface plasmon resonance binding to FLJ14797-derived protein. The protocol: as §1, §2
In general terms: In SPR one partner is held on a chip, and binding of the other changes the refractive index at the surface.

The target in another assay is T3, FLJ10335-derived protein (Homo sapiens, UniProt Q9NW38, S77P).
T3 construct: made in house; host or cells: wheat germ cell-free synthesis system (PROTEIOS, Toyobo)
T3 sequence (Q9NW38 1-375 S77P): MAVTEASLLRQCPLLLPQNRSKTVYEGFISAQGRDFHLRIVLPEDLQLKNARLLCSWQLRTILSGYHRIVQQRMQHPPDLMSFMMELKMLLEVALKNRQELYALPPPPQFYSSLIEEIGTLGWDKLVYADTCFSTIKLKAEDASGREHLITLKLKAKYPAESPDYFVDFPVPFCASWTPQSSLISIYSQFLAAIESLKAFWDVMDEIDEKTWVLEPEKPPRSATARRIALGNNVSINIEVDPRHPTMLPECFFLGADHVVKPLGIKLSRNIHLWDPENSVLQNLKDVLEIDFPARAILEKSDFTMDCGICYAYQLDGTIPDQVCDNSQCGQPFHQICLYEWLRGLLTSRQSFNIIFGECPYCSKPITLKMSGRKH
Kind of assay: Biacore S51 surface plasmon resonance binding to FLJ10335-derived protein. The protocol:
as §1, §2

The next assay has as its target T4, FLJ11045-derived protein (Homo sapiens, UniProt Q9BXT8, E1380K).
T4 construct: made in house; host or cells: wheat germ cell-free synthesis system (PROTEIOS, Toyobo)
T4 sequence (Q9BXT8 949-1581 isoform Q9BXT8-4 E1338K): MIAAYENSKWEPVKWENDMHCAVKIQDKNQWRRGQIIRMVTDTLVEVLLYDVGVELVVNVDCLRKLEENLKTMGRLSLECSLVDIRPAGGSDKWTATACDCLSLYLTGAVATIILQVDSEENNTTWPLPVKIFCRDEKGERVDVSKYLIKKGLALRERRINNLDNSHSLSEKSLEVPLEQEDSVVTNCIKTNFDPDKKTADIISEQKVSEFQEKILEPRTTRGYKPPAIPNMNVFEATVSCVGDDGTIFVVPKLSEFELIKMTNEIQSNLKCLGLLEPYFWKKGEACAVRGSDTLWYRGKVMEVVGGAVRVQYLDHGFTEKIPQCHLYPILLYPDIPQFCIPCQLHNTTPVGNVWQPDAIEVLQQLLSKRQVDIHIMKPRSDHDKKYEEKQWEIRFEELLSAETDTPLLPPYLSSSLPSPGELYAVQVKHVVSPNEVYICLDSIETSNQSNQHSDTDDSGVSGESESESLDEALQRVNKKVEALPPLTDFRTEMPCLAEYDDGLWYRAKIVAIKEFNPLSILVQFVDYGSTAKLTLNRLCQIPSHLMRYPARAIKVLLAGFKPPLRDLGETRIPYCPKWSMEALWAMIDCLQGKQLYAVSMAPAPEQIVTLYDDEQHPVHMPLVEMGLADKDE
Kind of assay: Biacore S51 surface plasmon resonance binding to FLJ11045-derived protein.
Text: A desired gene of a human full-length cDNA clone was BP-reacted with the PCR cloning vector Gateway pDONR201 using the Invitrogen Gateway system per the kit protocol to yield an entry vector. As the destination vector for the Gateway system, a Gateway cassette having a Gateway recombinant sequence was introduced to allow the utilization of the Gateway system on the basis of pEU3-NII (Toyobo), which matches with a cell-free protein synthesis system (PROTEIOS) of Toyobo Co., Ltd., which employs a wheat germ extract, and a double tag destination vector modified using the PCR method to allow the expression of a peptide having a histidine tag and a FLAG tag sequence in the N-terminal region of the expressed protein was prepared.
The prepared double tag destination vector and entry vector were […] using the Invitrogen Gateway system per the protocol and the Escherichia coli competent cell DH5α was transformed therewith; a clone incorporating the expression vector was selected. A plasmid was prepared from the obtained clone using the QIAfilter Midi kit (QUIAGEN) per the kit protocol. The plasmid obtained was subjected to phenol/chloroform treatment per the protocol for PROTEIOS (Toyobo) to inactivate the RNase to yield a purified expression plasmid.
A recombinant protein was synthesized using a cell-free protein synthesis system (PROTEIOS) of Toyobo Co., Ltd., which employs a wheat germ extract. Subsequently, mRNA was prepared from the expression plasmid acquired by the method described in section 1 above per the protocol for PROTEIOS. With 20 μg of the mRNA acquired, a protein was synthesized per the protocol for PROTEIOS using two wells of a 96-well microtiter plate. The protein synthesized was subjected to high-speed centrifugation, the precipitate was removed, and the resulting soluble fraction was purified using ANTI-FLAG M2 Affinity Gel (SIGMA Company) having an anti-FLAG tag antibody immobilized hereto per the protocol, to yield a purified protein.
as §2

A further assay concerns the target T5, FLJ11474-derived protein (Homo sapiens, UniProt Q9BVC4).
T5 construct: made in house; host or cells: wheat germ cell-free synthesis system (PROTEIOS, Toyobo)
Kind of assay: Biacore S51 surface plasmon resonance binding to FLJ11474-derived protein. On the procedure: as §1, §2

A further assay concerns the target T6, FLJ14467-derived protein (Homo sapiens, UniProt Q9HB40).
T6 construct: made in house; host or cells: wheat germ cell-free synthesis system (PROTEIOS, Toyobo)
T6 sequence (Q9HB40 27-452): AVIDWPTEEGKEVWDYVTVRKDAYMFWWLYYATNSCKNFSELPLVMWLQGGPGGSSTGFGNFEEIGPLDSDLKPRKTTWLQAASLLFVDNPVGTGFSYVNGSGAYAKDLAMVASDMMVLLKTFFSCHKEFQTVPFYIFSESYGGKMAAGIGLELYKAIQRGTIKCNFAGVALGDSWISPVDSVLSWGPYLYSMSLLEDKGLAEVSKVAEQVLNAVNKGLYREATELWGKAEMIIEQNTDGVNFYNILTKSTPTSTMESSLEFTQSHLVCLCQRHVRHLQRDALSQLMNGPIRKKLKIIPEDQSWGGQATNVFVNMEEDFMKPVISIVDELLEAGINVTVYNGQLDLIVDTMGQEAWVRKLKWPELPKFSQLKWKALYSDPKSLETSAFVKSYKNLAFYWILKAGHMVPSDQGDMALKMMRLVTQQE
Kind of assay: Biacore S51 surface plasmon resonance binding to FLJ14467-derived protein. On the procedure: as §1, §2

T5 sequence (Q9BVC4 1-325 isoform Q9BVC4-5): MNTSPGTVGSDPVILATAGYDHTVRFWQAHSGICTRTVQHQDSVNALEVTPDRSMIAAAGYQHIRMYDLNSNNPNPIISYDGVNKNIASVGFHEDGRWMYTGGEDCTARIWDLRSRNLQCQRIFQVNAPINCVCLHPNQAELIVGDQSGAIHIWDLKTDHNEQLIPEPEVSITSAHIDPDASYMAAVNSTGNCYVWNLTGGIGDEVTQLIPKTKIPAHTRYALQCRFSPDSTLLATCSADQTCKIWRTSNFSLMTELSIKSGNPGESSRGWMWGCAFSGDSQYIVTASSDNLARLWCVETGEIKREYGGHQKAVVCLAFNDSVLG
T2 sequence (Q9UGJ1 whole entry): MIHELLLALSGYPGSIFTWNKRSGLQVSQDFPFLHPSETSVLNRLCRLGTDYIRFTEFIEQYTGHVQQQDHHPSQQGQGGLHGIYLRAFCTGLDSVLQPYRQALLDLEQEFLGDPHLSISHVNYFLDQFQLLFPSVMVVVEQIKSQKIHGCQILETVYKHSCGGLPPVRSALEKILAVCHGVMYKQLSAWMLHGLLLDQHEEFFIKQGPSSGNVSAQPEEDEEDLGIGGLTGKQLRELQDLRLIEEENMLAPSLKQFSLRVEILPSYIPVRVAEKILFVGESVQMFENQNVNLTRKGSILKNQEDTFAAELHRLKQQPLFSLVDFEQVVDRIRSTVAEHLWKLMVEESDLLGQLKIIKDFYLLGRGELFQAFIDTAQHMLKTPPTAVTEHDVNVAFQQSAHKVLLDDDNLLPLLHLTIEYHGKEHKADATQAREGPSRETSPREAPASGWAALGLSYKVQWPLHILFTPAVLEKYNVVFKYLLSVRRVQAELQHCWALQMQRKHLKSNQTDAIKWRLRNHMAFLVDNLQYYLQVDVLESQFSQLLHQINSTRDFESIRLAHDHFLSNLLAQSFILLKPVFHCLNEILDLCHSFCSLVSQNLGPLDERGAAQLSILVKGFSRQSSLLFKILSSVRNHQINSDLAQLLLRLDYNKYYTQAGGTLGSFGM

Consider `CC1(C)S[C@@H]2[C@H](NC(=O)[C@H](N)c3ccccc3)C(=O)N2[C@H]1C(=O)O` [ampicillin], for which, on FLJ31146-derived protein, the “interaction with the protein (binding level dose-proportional, saturated at high doses)” value (“interaction with the protein” for short) was “interact specifically”.
For the molecule `O=C(c1ccc(F)cc1)C1CCN(CCn2c(=O)[nH]c3ccccc3c2=O)CC1` [ketanserin], on FLJ14797-derived protein, the “interaction with the protein” value was “interact specifically”.
For `N[C@@H](C(=O)N[C@@H]1C(=O)N2C(C(=O)O)=C(Cl)CS[C@H]12)c1ccccc1` [cefaclor], the “interaction with the protein” value was “interact specifically” at FLJ10335-derived protein; “interact specifically” on FLJ11045-derived protein (FLJ11045-derived protein, Biacore S51); “interact specifically” at FLJ11474-derived protein; “interact specifically” on FLJ14467-derived protein. Also, at FLJ11045-derived protein (Biacore S51, immobilized FLJ11045-derived protein, analyte 62.5 μM to 0.244 μM, read-out: binding dissociation constant Kd), the Kd was determined as 12.4 µM.

By Kd is commonly meant a measure of binding affinity in units of concentration.
